In brackets after ≈: the same amount, converted by molar mass. Where two headings read alike, the source gives them in different places.
What was measured:
Assay in all cases: Minimum inhibitory concentration, conventional tube dilution method
Assay type in all cases: cell-based
Salmonella = conditions: read-out: Minimal Inhibitory Concentration, Salm.
From the text: (§1) The activity of some of the new nitrofuryl quinoline derivatives of the present invention is exemplified in Table 1 against a gram-positive (Staph. aureus), a gram-negative (Salmonella) bacterium and a fungus (Candida albicans). Table 1 indicates the minimum inhibitory concentration of the compound under reference in mg/100 cc required in order to inhibit the growth between 1 and 6 strains of each type. The measurements have been carried out by the conventional tube dilution method at 37 degrees after 24 hours.

Candida albicans = conditions: read-out: Minimal Inhibitory Concentration, Cand. Alb.
From the text: as §1

Staph. aureus = conditions: Staphylococcus aureus, read-out: Minimal Inhibitory Concentration, Staph. aureus
From the text: as §1

[1] = gram-negative, tube dilution, 37 degrees, 24 hours, between 1 and 6 strains, mg/100 cc, decimal comma
[2] = fungus, tube dilution, 37 degrees, 24 hours, between 1 and 6 strains, mg/100 cc, decimal comma
[3] = gram-positive, tube dilution, 37 degrees, 24 hours, between 1 and 6 strains, mg/100 cc, decimal comma

SMILES | MIC (Salmonella; [1]) [µg/mL] | MIC (Candida albicans; [2]) [µg/mL] | MIC (Staph. aureus; [3]) [µg/mL] | MIC (Candida albicans; 24 h) [µg/mL] | MIC (Staph. aureus; 24 h) [µg/mL] | MIC (Salmonella; 24 h) [µg/mL]
O=C(O)c1cc(-c2ccc([N+](=O)[O-])o2)c2ccccc2n1 [COOH H NF H H H H, 2-carboxy-4-[2'-(5'-nitrofuryl)]quinoline] | > 10 | 30 to 50 (≈ 106 to 176 µM) | 1 (≈ 3.52 µM) | – | – | –
COc1cc(OC)c2c(-c3ccc([N+](=O)[O-])o3)cc(C)nc2c1 [CH3 H NF OCH3 H OCH3 H] | > 50 | > 50 | 0.5 (≈ 1.59 µM) | – | – | –
Cc1cc(-c2ccc([N+](=O)[O-])o2)c2cc3ccccc3cc2[n+]1[O-] [O CH3 H NF H drawing 13 H] | > 50 | 50 (≈ 156 µM) | 0.5 to 1 (≈ 1.56 to 3.12 µM) | – | – | –
CCOc1ccc2c(-c3ccc([N+](=O)[O-])o3)cc(C(=O)O)nc2c1 [COOH H NF H H OC2 H5 H, 2-carboxy-4-[2'-(5'-nitrofuryl)]-7-ethoxy quinoline] | 5 (≈ 15.2 µM) | > 50 | 0.5 (≈ 1.52 µM) | – | – | –
Cc1cc(-c2ccc([N+](=O)[O-])o2)c2cc3ccccc3cc2n1 [CH3 H NF H drawing 6 H, 2-methyl-4-[2'-(5'-nitrofuryl)]-6,7-benzoquinoline] | > 10 | > 50 | 5 (≈ 16.4 µM) | – | – | –
Cc1ccc2c(-c3ccc([N+](=O)[O-])o3)cc(C(=O)O)nc2c1 [COOH H 5NF H H CH3 H, 2-carboxy-4-[2'-(5'-nitrofuryl)]-7-methyl quinoline] | 25 (≈ 83.8 µM) | 50 (≈ 168 µM) | 0.5 (≈ 1.68 µM) | – | – | –
CC(=O)OC(OC(C)=O)c1cc(-c2ccc([N+](=O)[O-])o2)c2ccccc2n1 [CH(OAc)2 H NF H H H H] | 5 (≈ 13.5 µM) | 25 to 50 (≈ 67.5 to 135 µM) | 0.1 (≈ 0.27 µM) | – | – | –
COc1ccc2c(-c3ccc([N+](=O)[O-])o3)cc(C)[n+]([O-])c2c1 [O CH3 H NF H H OCH3 H, 2-methyl-4-[2'-(5'-nitrofuryl)]-7-methoxy quinoline N-oxide] | 5 (≈ 16.7 µM) | 0.5 (≈ 1.67 µM) | 0.1 (≈ 0.333 µM) | – | – | –
Cc1cc(-c2ccc([N+](=O)[O-])o2)c2ccc(Cl)cc2[n+]1[O-] [O CH3 H NF H H Cl H, 2-methyl-4-[2'-(5'-nitrofuryl)]-7-chloro-quinoline N-oxide] | > 25 | 2 to 5 (≈ 6.56 to 16.4 µM) | 1 (≈ 3.28 µM) | – | – | –
Cc1cc(-c2ccc([N+](=O)[O-])o2)[n+]([O-])c2ccccc12 [O NF H CH3 H H H H] | 10 (≈ 37 µM) | 2 to 5 (≈ 7.4 to 18.5 µM) | 1 (≈ 3.7 µM) | – | – | –
Cc1ccc2nc(C(Br)(Br)Br)cc(-c3ccc([N+](=O)[O-])o3)c2c1 [CBr3 H NF H CH3 H H, 2-tribromomethyl-4-[2'-(5'-nitrofuryl)]-6-methyl quinoline] | > 25 | > 50 | 1 (≈ 1.98 µM) | – | – | –
Cc1ccc2c(-c3ccc([N+](=O)[O-])o3)cc(C)nc2c1 [CH3 H NF H H CH3 H, 2,7-dimethyl-4-[2'-(5'-nitrofuryl)]quinoline] | 2 to 5 (≈ 7.46 to 18.6 µM) | 3 (≈ 11.2 µM) | 0.05 to 0.1 (≈ 0.186 to 0.373 µM) | – | – | –
CCc1cc(-c2ccc([N+](=O)[O-])o2)c2ccc(C)cc2n1 [C2 H5 H NF H H CH3 H] | > 50 | > 50 | 5 (≈ 17.7 µM) | – | – | –
O=[N+]([O-])c1ccc(-c2ccnc3ccccc23)o1 [H H NF H H H H, 4-[2'-(5'-nitrofuryl)]quinoline] | 5 (≈ 20.8 µM) | 1 (≈ 4.16 µM) | 0.1 to 0.5 (≈ 0.416 to 2.08 µM) | – | – | –
CCc1ccc2nc(C)cc(-c3ccc([N+](=O)[O-])o3)c2c1 [CH3 H NF H C2 H5 H H, 2-methyl-4-[2'-(5'-nitrofuryl)]-6-ethyl quinoline] | 25 (≈ 88.6 µM) | 25 (≈ 88.6 µM) | 0.1 (≈ 0.354 µM) | – | – | –
CCCCOc1cc2nc(C)cc(-c3ccc([N+](=O)[O-])o3)c2cc1OCCCC [CH3 H NF H OC4 H9 OC4 H9 H] | 10 (≈ 25.1 µM) | > 50 | 5 (≈ 12.5 µM) | – | – | –
Cc1ccc2nc(C)cc(-c3ccc([N+](=O)[O-])o3)c2c1 [CH3 H NF H CH3 H H, 2-methyl-4-[2'-(5'-nitrofuryl)]-6-methyl quinoline] | 5 (≈ 18.6 µM) | 5 (≈ 18.6 µM) | 0.1 (≈ 0.373 µM) | – | – | –
O=[N+]([O-])c1ccc(-c2cc(CC(O)C(Cl)(Cl)Cl)nc3ccccc23)o1 (stereo not drawn) [drawing 12 H NF H H H H] | > 50 | > 50 | 0.5 (≈ 1.24 µM) | – | – | –
CCc1ccc2c(c1)c(-c1ccc([N+](=O)[O-])o1)cc(CC)[n+]2[O-] [O C2 H5 H NF H C2 H5 H H] | > 10 | 5 to 10 (≈ 16 to 32 µM) | 0.1 (≈ 0.32 µM) | – | – | –
COc1ccc2c(-c3ccc([N+](=O)[O-])o3)cc(C(=O)O)nc2c1 [COOH H 5NF H H OCH3 H] | 10 (≈ 31.8 µM) | 50 (≈ 159 µM) | 0.5 (≈ 1.59 µM) | – | – | –
Cc1cc(-c2ccc([N+](=O)[O-])o2)c2c([N+](=O)[O-])ccc(C)c2n1 [CH3 H NF NO2 H H CH3] | > 50 | – | – | > 50 | 0.5 to 1 (≈ 1.6 to 3.19 µM) | –

SMILES | MIC (Salmonella; [1]) [µg/mL] | MIC (Candida albicans; [2]) [µg/mL] | MIC (Staph. aureus; [3]) [µg/mL] | MIC (Candida albicans; 24 h) [µg/mL] | MIC (Staph. aureus; 24 h) [µg/mL] | MIC (Salmonella; 24 h) [µg/mL]
Cc1cc(C)c2nc(C)cc(-c3ccc([N+](=O)[O-])o3)c2c1 [CH3 H NF H CH3 H CH3, 2,6,8-trimethyl-4-[2'-(5'-nitrofuryl)]quinoline] | > 50 | > 50 | 0.05 to 0.1 (≈ 0.177 to 0.354 µM) | – | – | –
O=[N+]([O-])c1ccc(-c2cc(CO)nc3ccccc23)o1 [CH2 OH H NF H H H H, 2-Hydroxymethyl-4-[2'-(5'-nitrofuryl)]quinoline] | 5 to 10 (≈ 18.5 to 37 µM) | 5 (≈ 18.5 µM) | 0.1 (≈ 0.37 µM) | – | – | –
CCCc1cc(-c2ccc([N+](=O)[O-])o2)c2ccc(C)cc2[n+]1[O-] [OC3 H7 H NF H H CH3 H] | – | > 50 | 1 (≈ 3.2 µM) | – | – | > 50
Cc1cc(-c2ccc([N+](=O)[O-])o2)c2ccc(O)cc2n1 [CH3 H NF H H OH H, 2-methyl-4-[2'-(5'-nitrofuryl)]-7-hydroxy quinoline] | 5 (≈ 18.5 µM) | 10 (≈ 37 µM) | 0.1 (≈ 0.37 µM) | – | – | –
Cc1cc(-c2ccc([N+](=O)[O-])o2)c2ccc(Cl)cc2n1 [CH3 H NF H H Cl H, 2-methyl-4-[2'-(5'-nitrofuryl)]-7-chloro quinoline] | 0.5 (≈ 1.73 µM) | 25 (≈ 86.6 µM) | 0.1 (≈ 0.346 µM) | – | – | –
CCc1cc(-c2ccc([N+](=O)[O-])o2)c2ccccc2n1 [C2 H5 H NF H H H H, 2-ethyl-4-[2'-(5'-nitrofuryl)]quinoline] | > 50 | 5 (≈ 18.6 µM) | 0.1 (≈ 0.373 µM) | – | – | –
O=C(c1cc(-c2ccc([N+](=O)[O-])o2)c2ccccc2n1)N1CCOCC1 [drawing 11 H NF H H H H] | 25 to 50 (≈ 70.8 to 142 µM) | 50 (≈ 142 µM) | 0.1 to 0.5 (≈ 0.283 to 1.42 µM) | – | – | –
O=[N+]([O-])c1ccc(-c2ccc3ccccc3n2)o1 [NF H H H H H H, 2-[2'-(5'-nitrofuryl)]quinoline] | – | 2 to 5 (≈ 8.33 to 20.8 µM) | 0.5 (≈ 2.08 µM) | – | – | 25 (≈ 104 µM)
CC(=O)Nc1ccc2c(-c3ccc([N+](=O)[O-])o3)cc(C)nc2c1C [CH3 H NF H H NHCOCH3 CH3] | > 50 | > 50 | 1 (≈ 3.07 µM) | – | – | –
CCCc1cc(-c2ccc([N+](=O)[O-])o2)c2cc(C)ccc2[n+]1[O-] [O C3 H7 H NF H CH3 H H] | > 50 | 5 to 25 (≈ 16 to 80 µM) | 1 to 5 (≈ 3.2 to 16 µM) | – | – | –
Cc1cc(-c2ccc([N+](=O)[O-])o2)c2c(C)ccc(N)c2n1 [CH3 H NF CH3 H H NH2] | > 50 | > 50 | 5 (≈ 17.6 µM) | – | – | –
COc1cc2nc(C)cc(-c3ccc([N+](=O)[O-])o3)c2cc1OC [CH3 H NF H OCH3 OCH3 H] | 25 (≈ 79.5 µM) | > 50 | 0.5 to 1 (≈ 1.59 to 3.18 µM) | – | – | –
CCc1cc(-c2ccc([N+](=O)[O-])o2)c2ccc(O)cc2n1 [C2 H5 H 5NF H H OH H] | 5 (≈ 17.6 µM) | 50 (≈ 176 µM) | 0.1 to 0.5 (≈ 0.352 to 1.76 µM) | – | – | –
COc1ccc2c(-c3ccc([N+](=O)[O-])o3)cc[n+]([O-])c2c1 [O H H NF H H OCH3 H, 4-[2'-(5'-nitrofuryl)]-7-methoxy quinoline N-oxide] | 5 (≈ 17.5 µM) | 0.5 (≈ 1.75 µM) | 0.01 to 0.05 (≈ 0.0349 to 0.175 µM) | – | – | –
Cc1cc(-c2ccc([N+](=O)[O-])o2)nc2ccccc12 [NF H CH3 H H H H, 2-[2'-(5'-nitrofuryl)]-4-methyl quinoline] | 5 (≈ 19.7 µM) | 0.5 (≈ 1.97 µM) | 0.2 to 0.5 (≈ 0.787 to 1.97 µM) | – | – | –
CCCc1cc(-c2ccc([N+](=O)[O-])o2)c2cc(C)ccc2n1 [C3 H7 H NF H CH3 H H] | – | 5 to 10 (≈ 16.9 to 33.7 µM) | 1 (≈ 3.37 µM) | – | – | > 50
COc1ccc(OC)c2c(-c3ccc([N+](=O)[O-])o3)cc(C)nc12 [CH3 H NF OCH3 H H OCH3, 2-methyl-4-[2'-(5'-nitrofuryl)]-5,8-dimethoxy quinoline] | > 50 | > 50 | 50 (≈ 159 µM) | – | – | –
CCCc1cc(-c2ccc([N+](=O)[O-])o2)c2ccc(C)cc2n1 [C3 H7 H NF H H CH 3 H] | > 50 | > 50 | 5 (≈ 16.9 µM) | – | – | –
O=C(O)c1cc(-c2ccc([N+](=O)[O-])o2)c2ccccc2[n+]1[O-] [O COOH H NF H H H H] | 50 (≈ 167 µM) | 10 to 25 (≈ 33.3 to 83.3 µM) | 0.5 (≈ 1.67 µM) | – | – | –
Cc1cc(-c2ccc([N+](=O)[O-])o2)c2cc(C(=O)O)c(O)cc2n1 [CH3 H NF H COOH OH H] | > 50 | > 50 | 10 (≈ 31.8 µM) | – | – | –

From patent US4224448A, “2'-(5'-Nitrofuryl) substituted quinolines” (priority 1966, dated 1980)
